In ChEMBL document CHEMBL1201862, “PubChem BioAssay data set” (2004):
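Compound exposure: 48 hours, 5 concentrations, 96-well plates. GI50 marks 50% less growth.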 Active and inactive are the calls of the source. Rule as the data show it: active = GI50 up to about 1.1 µM and inactive = higher. Non-standard residues stand in square brackets, D forms with d. Residues, ends and D or L forms follow the SMILES beside them. *: point of attachment. Cbz = O=C(OCc1ccccc1)*; Boc = CC(C)(C)OC(=O)*; Aib = CC(C)(N)C(=O)O; OBn = c1ccc(CO*)cc1; OtBu = CC(C)(C)O*; βAla = NCCC(=O)O

Tests used:
Assay in all cases: NCI-60 cell line screen, 48 h
A498 = test system: A498
ACHN = test system: ACHN
EKVX = test system: EKVX
HCC 2998 = test system: HCC 2998
HL-60 = test system: HL-60
HOP-92 = test system: HOP-92
Hs-578T = test system: Hs-578T
MDA-MB-435 = test system: MDA-MB-435
MOLT-4 = test system: MOLT-4
NCI-H226 = test system: NCI-H226
NCI-H23 = test system: NCI-H23
OVCAR-4 = test system: OVCAR-4
OVCAR-5 = test system: OVCAR-5
OVCAR-8 = test system: OVCAR-8
RPMI-8226 = test system: RPMI-8226
RXF 393 = test system: RXF 393
SF-268 = test system: SF-268
SK-MEL-2 = test system: SK-MEL-2
SW-620 = test system: SW-620
UACC-257 = test system: UACC-257

Compound | GI50 (A498) | GI50 (ACHN) | GI50 (EKVX) | GI50 (HCC 2998) | GI50 (HL-60) | GI50 (HOP-92) | GI50 (Hs-578T) | GI50 (MDA-MB-435) | GI50 (MOLT-4) | GI50 (NCI-H226) | GI50 (NCI-H23) | GI50 (OVCAR-4) | GI50 (OVCAR-5) | GI50 (OVCAR-8) | GI50 (RPMI-8226) | GI50 (RXF 393) | GI50 (SF-268) | GI50 (SK-MEL-2) | GI50 (SW-620) | GI50 (UACC-257)
O=C(NNS(=O)(=O)c1ccccc1)c1cccnc1 | > 100 µM (inactive) | > 100 µM (inactive) | > 100 µM (inactive) | > 100 µM (inactive) | > 100 µM (inactive) | > 100 µM (inactive) | > 100 µM (inactive) | > 100 µM (inactive) | > 100 µM (inactive) | > 100 µM (inactive) | > 100 µM (inactive) | > 100 µM (inactive) | > 100 µM (inactive) | > 100 µM (inactive) | > 100 µM (inactive) | > 100 µM (inactive) | > 100 µM (inactive) | > 100 µM (inactive) | > 100 µM (inactive) | > 100 µM (inactive)
COc1cc(C2c3cc4c(cc3OC(NNC(N)=O)C2C)OCO4)cc(OC)c1OC (stereo unspecified) | 0.0233 µM (active) | 0.557 µM (active) | 2.35 µM (inactive) | 0.373 µM (active) | 0.11 µM (active) | 0.0675 µM (active) | 0.125 µM (active) | 0.0586 µM (active) | 0.235 µM (active) | 0.205 µM (active) | 0.394 µM (active) | 11.8 µM (inactive) |  | 0.356 µM (active) | 0.167 µM (active) | 0.525 µM (active) | 0.518 µM (active) | 1.26 µM (inactive) | 0.142 µM (active) | 0.603 µM (active)
O=C1NC(=S)NC(=O)C1C(c1ccccc1[N+](=O)[O-])C1C(=O)NC(=S)NC1=O.c1ccncc1 | > 100 µM (inactive) | > 100 µM (inactive) |  |  | 26.3 µM (inactive) | > 100 µM (inactive) | > 100 µM (inactive) | > 100 µM (inactive) | > 100 µM (inactive) | > 100 µM (inactive) | > 100 µM (inactive) | > 100 µM (inactive) | > 100 µM (inactive) | > 100 µM (inactive) | > 100 µM (inactive) | > 100 µM (inactive) | > 100 µM (inactive) | > 100 µM (inactive) | > 100 µM (inactive) | > 100 µM (inactive)
O=C(CC(C(=O)c1cccs1)c1ccc2c(c1)OCO2)c1ccccc1 (stereo unspecified) | > 100 µM (inactive) | > 100 µM (inactive) |  | > 100 µM (inactive) | 58.9 µM (inactive) | > 100 µM (inactive) | > 100 µM (inactive) | 80.4 µM (inactive) |  | > 100 µM (inactive) | > 100 µM (inactive) | > 100 µM (inactive) |  | > 100 µM (inactive) | > 100 µM (inactive) | > 100 µM (inactive) | > 100 µM (inactive) | > 100 µM (inactive) | > 100 µM (inactive) | > 100 µM (inactive)
COc1ccc(C(=O)/C=C/c2cccnc2)cc1OC | 14.6 µM (inactive) | 13.8 µM (inactive) | 15.1 µM (inactive) |  | 2.36 µM (inactive) | 13 µM (inactive) | 14.6 µM (inactive) | 14.8 µM (inactive) | 3.33 µM (inactive) | 12.1 µM (inactive) | 10.6 µM (inactive) | 12 µM (inactive) | 12.1 µM (inactive) | 5.81 µM (inactive) | 2.6 µM (inactive) | 5.81 µM (inactive) | 7.55 µM (inactive) | 13.2 µM (inactive) |  | 15.6 µM (inactive)
C[C@]12CC/C(=N\O)C=C1CC[C@@H]1[C@@H]2CC[C@]2(C)C(=N/O)/C(=C/c3ccc([N+](=O)[O-])cc3)C[C@@H]12 | 13 µM (inactive) | 5.21 µM (inactive) |  |  | 1.85 µM (inactive) | 3.3 µM (inactive) | 3.5 µM (inactive) | 3.6 µM (inactive) | 2.55 µM (inactive) | 12.9 µM (inactive) | 6 µM (inactive) | 4.73 µM (inactive) |  |  | 1.87 µM (inactive) | 59.6 µM (inactive) | 3.16 µM (inactive) | 3.91 µM (inactive) | 5.42 µM (inactive) | 4.66 µM (inactive)
C=C[C@H]1CN2CCc3c([nH]c4c([C@@H]5CCCN5C)c(O)ccc34)[C@@H]2C[C@@H]1C[C@H]1c2[nH]c3ccccc3c2CCN1C | 1.85 µM (inactive) | 1.65 µM (inactive) |  | 1.72 µM (inactive) | 0.524 µM (active) | 1.4 µM (inactive) | 1.67 µM (inactive) | 1.51 µM (inactive) | 0.692 µM (active) | 2.05 µM (inactive) | 1.82 µM (inactive) | 1.71 µM (inactive) | 1.79 µM (inactive) | 1.4 µM (inactive) | 0.478 µM (active) | 0.274 µM (active) | 1.74 µM (inactive) | 1.85 µM (inactive) | 1.13 µM (inactive) | 1.91 µM (inactive)
COc1ccc2c(c1)CCCN1Cc3ccccc3CC21 (stereo unspecified) | 27 µM (inactive) | > 100 µM (inactive) | 98.4 µM (inactive) | 19.1 µM (inactive) | 28.8 µM (inactive) | 30.7 µM (inactive) | > 100 µM (inactive) | 54.1 µM (inactive) | 54.2 µM (inactive) | 31.5 µM (inactive) | > 100 µM (inactive) | > 100 µM (inactive) | 78.2 µM (inactive) | > 100 µM (inactive) |  | 48.3 µM (inactive) | > 100 µM (inactive) |  | 65.6 µM (inactive) | 91.2 µM (inactive)
Cc1ccc2nc3ccccc3c(C3C4C(=O)N(c5ccc(F)cc5)C(=O)C4ON3C(C(N)=O)c3ccccc3)c2c1 (stereo unspecified) | 41.1 µM (inactive) | 49.3 µM (inactive) | 30.5 µM (inactive) |  | 34.9 µM (inactive) | 37.1 µM (inactive) | 31.3 µM (inactive) | 26.2 µM (inactive) | 41.6 µM (inactive) | 46.3 µM (inactive) | 29.9 µM (inactive) | 41.1 µM (inactive) | 25.8 µM (inactive) | 46 µM (inactive) | 25.3 µM (inactive) | 30.2 µM (inactive) | 47.1 µM (inactive) | 33.3 µM (inactive) | 37.1 µM (inactive) | 42.7 µM (inactive)
Nc1ncc(/C=N/O)c(NCC2(CO)CC(CCc3ccccc3)C2)n1 (stereo unspecified) | 11 µM (inactive) |  |  | 15.5 µM (inactive) | 2.2 µM (inactive) | 12.4 µM (inactive) | 22.4 µM (inactive) | 11.1 µM (inactive) | 3.36 µM (inactive) | 12.9 µM (inactive) |  | 8.26 µM (inactive) | 16.9 µM (inactive) | 11.1 µM (inactive) | 5.73 µM (inactive) | 12.1 µM (inactive) | 23.9 µM (inactive) | 16.1 µM (inactive) |  | 10.9 µM (inactive)
COc1cc(C)cc(C(=O)/C=C/c2ccccc2)c1O | 18.3 µM (inactive) | 18.3 µM (inactive) | 19.4 µM (inactive) | 18.8 µM (inactive) | 26.4 µM (inactive) | 14.9 µM (inactive) | 32.8 µM (inactive) | 26.9 µM (inactive) | 30.2 µM (inactive) | 24.2 µM (inactive) | 16.9 µM (inactive) | 20.2 µM (inactive) | 13.8 µM (inactive) | 19.2 µM (inactive) | 21.2 µM (inactive) | 16.3 µM (inactive) | 25.6 µM (inactive) | 18.5 µM (inactive) | 20.2 µM (inactive) | 16.7 µM (inactive)
CC1=NC(=O)C(C)(c2ccccc2)N1CCc1ccccc1 (stereo unspecified) | 21.7 µM (inactive) | > 100 µM (inactive) | > 100 µM (inactive) | 27.4 µM (inactive) | 51.5 µM (inactive) | 16.9 µM (inactive) | > 100 µM (inactive) | 75 µM (inactive) | 15.9 µM (inactive) | 42.7 µM (inactive) | > 100 µM (inactive) | 25.6 µM (inactive) | > 100 µM (inactive) | > 100 µM (inactive) | 63.1 µM (inactive) | 24.7 µM (inactive) | > 100 µM (inactive) | > 100 µM (inactive) | 61.8 µM (inactive) | 72.9 µM (inactive)
COCC#C[C@@]1(O)CCCCC1CC(OC)OC (stereo partly specified) | 38.4 µM (inactive) | > 100 µM (inactive) | > 100 µM (inactive) | > 100 µM (inactive) | 55.1 µM (inactive) | 94.6 µM (inactive) | > 100 µM (inactive) | 62.7 µM (inactive) | 42.7 µM (inactive) | > 100 µM (inactive) | > 100 µM (inactive) | 50.4 µM (inactive) | > 100 µM (inactive) | 51.6 µM (inactive) | 32.4 µM (inactive) | > 100 µM (inactive) | > 100 µM (inactive) | > 100 µM (inactive) |  | > 100 µM (inactive)
Cc1ccc([N+](=O)[O-])c2c(NCCC[N+](C)(C)[O-])ccnc12 | 32.2 µM (inactive) | 61.5 µM (inactive) | > 100 µM (inactive) | 23.4 µM (inactive) | 31.3 µM (inactive) | 50.9 µM (inactive) | 48.8 µM (inactive) | > 100 µM (inactive) | 34.8 µM (inactive) | 98.9 µM (inactive) | 33.4 µM (inactive) | 20.3 µM (inactive) | 28.2 µM (inactive) | 58.9 µM (inactive) | 31 µM (inactive) | 34.4 µM (inactive) | > 100 µM (inactive) | 52.6 µM (inactive) | 34.1 µM (inactive) | 29.4 µM (inactive)
CC(C)(C)OC(=O)CC(NC(=O)OC(C)(C)C)C(=O)NC(CCCCNC(=O)OCc1ccccc1)C(=O)NC(C)(C)C(=O)NCCC(=O)OCc1ccccc1 (stereo unspecified) (Boc-D(OtBu)K(Cbz)[Aib][βAla]-OBn; configuration not given here) | 86.3 µM (inactive) | > 100 µM (inactive) | > 100 µM (inactive) |  | > 100 µM (inactive) | > 100 µM (inactive) | > 100 µM (inactive) | > 100 µM (inactive) | > 100 µM (inactive) | > 100 µM (inactive) | > 100 µM (inactive) | > 100 µM (inactive) | > 100 µM (inactive) | > 100 µM (inactive) | > 100 µM (inactive) | > 100 µM (inactive) | > 100 µM (inactive) |  | > 100 µM (inactive) | 
